Here are results for five molecules from patent US12291502B2, “Topoisomerase II-alpha inhibitors and methods of treating cancer using the same” (The Regents of the University of Colorado, priority 2019, dated 2025).

Structures are written as SMILES. Values joined by “and” are separate entries in the source; they are usually repeats but may differ in a detail not shown here. Equal entries are not always repeated. Where two headings read alike, the source gives them in different places. A value given as a limit tells only on which side of the number the result lay.

Data set [1] concerns the target T1, Human TOP2A (Homo sapiens, UniProt P11388).
T1 construct: purchased TopoGEN (Buena Vista, CO)
The data set can be described thus: TOP2A DNA decatenation assay (kDNA, agarose gel). It is filed as biochemical. Particulars: for inhibition at 30 µM: 1 h, read-out: % Inhibition TOP2A (30 μM); for IC50: decatenation dose response. On the procedure:
Inhibition of TOP2A activity. Human TOP2A, kDNA, and assay buffers were obtained from TopoGEN (Buena Vista, CO). The synthesized compounds were screened for their TOP2A inhibitory activity by the intensity of DNA decatenation bands on a DNA gel when compared to the vehicle. Compounds were initially incubated with TOP2A (3 U/reaction) for 20 min at a 30 μM and 1.2% DMSO concentration in a 37° C. incubator without CO2.
The decatenation reaction was initiated immediately after by adding 2 mM ATP and 35 ng/reaction of kDNA, then incubated for 1 hour in a 37° C. water bath. The samples were loaded into a 0.8% agarose gel in 1× Tris-Borate-EDTA (TBE) at a 0.2 μg/mL ethidium bromide concentration and allowed to run in an electrophoretic chamber for 1 hour at 100V. Compounds with the highest inhibitory activity were selected for 2-fold serial dilution dose-response assays (58.6 nM-30 μM). The dose-response assays followed the same protocol with the exception of 4 U/reaction of TOP2A.
Inhibition studies of TOP2A and observed structure activity relationships (SAR). DNA catenation/decatenation or linking/unlinking of DNA is one of the main TOP2A functions essential for regulating DNA topology, and this is ATP dependent. […] Thus, as a starting point, the synthesized analogs were screened against TOP2A-dependent decatenation using 30 μM fixed concentrations, and the DNA from reactions were resolved on 0.8% agarose gels containing ethidium bromide.
Moreover, these studies provided interesting SAR, which shed light on the potential lead drug target binding interactions and affinity, biological activity, and future drug design optimization with this unique class of TOP2A inhibitors.
(§1) TOP2A decatenation assay. Human TOP2A, kDNA, and assay buffers were obtained from TopoGEN (Buena Vista, CO). The synthesized compounds were screened for their TOP2A inhibitory activity by the intensity of DNA decatenation bands on a DNA gel when compared to the vehicle. Compounds were initially incubated with TOP2A (3 U/reaction) for 20 min at a 30 μM and 1.2% DMSO concentration in a 37° C. incubator without CO2. The decatenation reaction was initiated immediately after by adding 2 mM ATP and 35 ng/reaction of kDNA, then incubated for 1 h in a 37° C. water bath. The samples were loaded into a 0.8% agarose gel in 1× Tris-Borate-EDTA (TBE) at a 0.2 μg/mL ethidium bromide concentration and allowed to run in an electrophoretic chamber for 1 h at 100V. Compounds with the highest inhibitory activity were selected for 2-fold serial dilution dose-response assays (58.6 nM-30 μM). The dose-response assays followed the same protocol with the exception of 4 U/reaction of TOP2A,
as §1, with “assays (53.6” for “assays (58.6”, “of TOP2A.” for “of TOP2A,”

In data set [2] the test system is TOP2A-dependent TCF-transcription in SW620-TOP tumor organoids. The data set can be described thus: TCF (TOPflash) reporter assay in 3D tumor organoids. Particulars: SW620-TOP tumor organoids, 72 hours; read-out: IC50 inhibition of TCF-transcription. It is filed as cell-based. Here is the method:
TCF reporter assay in 3D Tumor organoid. Stable engineered cells containing pCDH-TOPflash-luc-EF1-puro were used to generate tumor organoid arrayed in 96-well plates and treated for 72 hours. One-Glo™ luciferase reagent and CellTiter-Glo™ 3D cell viability reagent (Promega) were used to determine the TCF reporter activity in viable cells.
After characterizing 3 and 7 as TOP2A ATP-competitive inhibitors, these compounds were next tested for their ability to inhibit TOP2A-dependent TCF-transcription using the well characterized TOPflash (TOP) luminescent reporter, which was used to generate a stably transduced SW620-TOP reporter cells as described previously (Zhou, et al., Oncogene 2016, 35:4990-9). These cells were used to generate single 3D tumor organoids (700 μm in diameter) uniformly arrayed in 96-well plates, which mimic aspects of tumor function observed in vivo. […] Like neo, the mode of action of compounds 3 and 7 also results in significant antitumor activity (FIGS. 3E-3H). […] In other words, the activity of 3 and 7 is long lasting, suppressing CSC stemness and related tumorigenicity. EMT is a major driving force promoting tumor cell invasion and metastasis. […] Tumor organoids were dissociated, and viable cells were washed and plated into the top chamber of 96-well invasion plate coated with Matrigel and incubated for an additional 72 hours without adding any additional compound. […] Taken together, the biological activity of 3 and 7 is consistent with the activity of neo, inhibiting TOP2A-dependent TCF-transcription that in turn reverses EMT while inhibiting the associated tumorigenic properties of mCRC.
A similar trend in IC50 values was observed compared to TOP2A enzyme studies, further supporting our proposed mechanism of action as inhibition of TOP2A-dependent TCF-transcription.
3D Tumor organoid TOPflash reporter assay. […] 35(38): p. 4990-9.] were used to generate tumor organoids arrayed in 96-well plates and treated for 72 h with TOP2A inhibitors. One-Glo™ luciferase reagent and CellTiter-Glo™ 3D cell viability reagent (Promega, WI) were used to determine the TCF reporter activity in viable cells. Briefly, reagents were added to the spheroids at 1:1 ratio (v:v) and the plates were placed on an orbital shaker (300 rpm) for 10 min at room temperature before the luminescence was read with Envision plate reader (PerkinElmer, MA). TCF reporter activity was normalized to organoid viability and inhibitors treated conditions were normalized to DMSO treated controls.
Background: In a reporter assay the amount or activity of a reporter protein is the signal.

Data set [3] is described as follows: Water solubility (stated). It is filed as physicochemical.
Data set [4] concerns SW620 tumor organoids. The data set is described as follows: Tumor organoid cytotoxicity / 3D cell viability (CellTox Green). The format is cell-based. To be noted: Homo sapiens, SW-620, Table 2, 72 hours. Here is the method:
Tumor organoid cytotoxicity. Fluorescence image-based method: The CellTox™ Green assay (Promega, Madison, WI, USA) was used with 3D tumor organoid to measure spheroid death. 0.1% CellTox™ Green was included in each well at the time of analogs dosing. 10% lysis solution was used as a cell death control. Fluorescence was measured at various time points with 465-510 nm excitation and 520-530 nm emission. Luminescence plate reader method: A 1:1 ratio of CellTiter-Glo™ 3D reagent (Promega) was added to 3D tumor organoid and the plate was shaken at 400 rpm for 30 min before luminescence was read with a PerkinElmer Envision plate reader.
Finally, SW620 tumor organoid cytotoxicity experiments were conducted using the CellTox Green assay, a fluorescence image-based method, to determine whether the inhibition of TCF transcription and effects on EMT are not the result of cytotoxicity. […] All of the analogs tested display IC50 dose response >30 μM and were higher compared to the IC50 values obtained during the downregulation of TCF transcription activity, and the EC50 values obtained for EMT modulation. Thus, the biological effects on TCF-transcription and EMT are not a result of tumor organoid cell death.
(§2) Tumor organoid cytotoxicity. SW620 tumor organoids were grown as previously outlined. CellTox™ Green-Express Cytotoxicity Assay (Promega, WI) solution was prepared per manufacturer's protocol. Briefly, organoids were treated for 72 h with CellTox™ Green Express (0.5×) reagent and various doses of TOP2A inhibitors over a range of 0-to-40 μM. Organoids were then imaged using the Opera Phenix HCS system (PerkinElmer, MA). CellTox™ Green Express was excited at 488 nm and emission was detected at 500-550 nm. Mean intensity of the whole well was utilized for calculating cytotoxicity with Lysis Buffer (Promega, WI, 0.025×) as the 0% viability control and 0.4% DMSO as the 100% viability control. Intensity values were normalized to these controls using GraphPad Prism 7.0 (GraphPad, CA).
as §2, with “CellTox™-Green-Express” for “CellTox™ Green-Express”, “(GraphPad.” for “(GraphPad,”

Setting [5] is: Table 1, decatenation, 30 μM fixed concentration.
The mark [6] stands for this setting: Table 1, read-out: % Inhibition TOP2A (IC50 Values).
Setting [7] is: read-out: IC50 TOP2A inhibition.

The term inhibition denotes the share of the control response that was lost under treatment. One may read the IC50 as the concentration needed to halve the response being measured.

T1 sequence (P11388 whole entry): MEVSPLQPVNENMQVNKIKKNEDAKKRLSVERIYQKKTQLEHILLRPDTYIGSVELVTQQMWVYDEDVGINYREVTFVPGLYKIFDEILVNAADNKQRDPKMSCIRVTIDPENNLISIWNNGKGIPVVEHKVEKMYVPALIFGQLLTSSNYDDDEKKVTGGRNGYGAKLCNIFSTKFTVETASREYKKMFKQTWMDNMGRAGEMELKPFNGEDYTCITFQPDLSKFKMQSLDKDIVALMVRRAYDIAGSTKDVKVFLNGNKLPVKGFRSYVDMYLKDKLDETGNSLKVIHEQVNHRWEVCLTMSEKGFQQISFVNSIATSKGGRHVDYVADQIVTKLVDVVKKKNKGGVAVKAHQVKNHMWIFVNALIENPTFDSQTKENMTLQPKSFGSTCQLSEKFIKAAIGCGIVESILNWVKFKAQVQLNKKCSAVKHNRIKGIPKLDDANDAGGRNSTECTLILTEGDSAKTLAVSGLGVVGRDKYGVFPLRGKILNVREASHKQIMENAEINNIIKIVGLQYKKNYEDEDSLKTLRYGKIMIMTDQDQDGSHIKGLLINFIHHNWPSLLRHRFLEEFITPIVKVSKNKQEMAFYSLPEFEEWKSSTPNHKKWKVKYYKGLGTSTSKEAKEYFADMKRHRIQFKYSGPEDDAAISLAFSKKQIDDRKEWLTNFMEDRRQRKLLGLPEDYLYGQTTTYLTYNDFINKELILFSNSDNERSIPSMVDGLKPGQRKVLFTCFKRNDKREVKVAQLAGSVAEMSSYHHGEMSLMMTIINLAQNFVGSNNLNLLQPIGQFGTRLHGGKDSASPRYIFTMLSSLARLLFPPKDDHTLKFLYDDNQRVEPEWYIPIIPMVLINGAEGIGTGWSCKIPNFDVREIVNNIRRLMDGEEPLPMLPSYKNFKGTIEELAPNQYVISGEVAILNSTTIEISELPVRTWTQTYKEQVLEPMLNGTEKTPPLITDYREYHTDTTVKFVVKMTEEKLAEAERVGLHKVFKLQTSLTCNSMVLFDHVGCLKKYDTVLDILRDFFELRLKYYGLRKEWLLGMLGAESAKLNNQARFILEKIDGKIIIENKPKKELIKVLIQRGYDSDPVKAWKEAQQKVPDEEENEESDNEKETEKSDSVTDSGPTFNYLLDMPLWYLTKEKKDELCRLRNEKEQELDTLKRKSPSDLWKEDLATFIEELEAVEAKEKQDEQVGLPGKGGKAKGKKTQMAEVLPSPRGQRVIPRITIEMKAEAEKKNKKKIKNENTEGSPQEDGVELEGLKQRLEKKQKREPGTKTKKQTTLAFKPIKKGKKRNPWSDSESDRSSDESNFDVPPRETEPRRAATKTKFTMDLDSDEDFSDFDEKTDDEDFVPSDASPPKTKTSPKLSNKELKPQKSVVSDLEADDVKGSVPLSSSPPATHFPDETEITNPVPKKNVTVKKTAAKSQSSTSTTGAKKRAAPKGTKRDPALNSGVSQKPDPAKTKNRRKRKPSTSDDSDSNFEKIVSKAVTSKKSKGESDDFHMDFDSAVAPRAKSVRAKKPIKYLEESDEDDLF

Consider `CC(=O)Nc1ccc2c(-c3cccs3)ccnc2c1O` [Analog 57], for which the inhibition at 30 µM in data set [1] (setting [5]) was found to be 100%. The concentration for half-maximal inhibition (IC50) in data set [1] (setting [6]) was found to be 2.3 µM; in data set [2] it was 7 µM.
Consider `O=C(CN1CCOCC1)Nc1ccc2c(-c3cc(F)ccc3O)ccnc2c1O` [Analog 41], for which the “% Inhibition TOP2A (30 μM)” value in data set [1] (setting [5]) was 4.0%. Moreover, the IC50 in data set [2] worked out at 4.7 µM.
In the case of `COc1c(NC(C)=O)ccc2c(-c3cc4ccccc4s3)ccnc12` [Analog 45], the IC50 in data set [2] came out at 10.7 µM.
`O=C(CCN1CCOCC1)Nc1ccc2c(-c3cc4ccccc4o3)ccnc2c1O` [Analog 61]: in data set [1] (setting [5]), the inhibition at 30 µM is 83%. Moreover, the IC50 was determined as 4.1 µM in data set [1] (setting [6]) and 4 µM in data set [1] (setting [7]). In addition, the “fold less potent compared to 53 (TOP2A IC50)” value in data set [1] (ratio of TOP2A IC50 values) was 20 fold. In data set [3], the “water solubility, in words” value is “maintains water solubility”.
For `CC(=O)Nc1ccc2c(-c3cc4ccccc4o3)ccnc2c1O` [Analog 53], in data set [1] (setting [5]), the inhibition at 30 µM was 100%. Further, the IC50 in data set [1] (setting [7]) is 0.24 µM and 0.2 µM; in data set [4], above 30 µM. Further, the “TOP2A inhibition, result in words” value in data set [1] (decatenation screen at 30 μM) is “complete inhibitory activity against TOP2A”.
